Data on seven compounds can be found in US9789100B2, “Compounds as rearranged during transfection (RET) inhibitors” (GlaxoSmithKline Intellectual Property Development Limited, priority 2013, dated 2017).

The test system of experiment [1] is TT cells. Put plainly: RET kinase cell-based proliferation assay. Also on record: species or system human. To be noted: 192 h, read-out: RET IC50. The source says: RET Kinase Cell-Based Proliferation Assay
The target of experiment [2] is Human RET kinase cytoplasmic domain (Homo sapiens (Human), UniProt P07949). The experiment can be described thus: RET kinase enzymatic assay. To be noted: human RET kinase enzymatic assay (Table 2). The format is biochemical. The method, then: RET Kinase Enzymatic Assay
GST-RET was purified using glutathione sepharose chromatography. The RET kinase enzymatic assay was performed in a total volume of 10 uL with increasing concentrations of RET kinase inhibitor as a singlet in a 384 well format as follows: RET inhibitor compound plates are prepared by adding 100 nL of RET inhibitor at different concentrations to a 384-well plate. 5 μL/well of a 2× enzyme mix (50 mM HEPES (4-(2-hydroxyethyl)-1-piperazineethanesulfonic acid); 1 mM CHAPS (3[(3-cholamidopropyl)dimethylammonio]-1-propanesulfonate); 0.1 mg/mL BSA (bovine serum albumin); 1 mM DTT (dithiothreitol); 0.2 nM RET kinase) was added to the 384-well plate and incubated for 30 minutes at 23° C.

Experiment [3] concerns the target constitutive RET kinase phosphorylation in TT cells (Homo sapiens (Human), UniProt P07949, C634W). The experiment can be described thus: RET kinase cell-based mechanistic assay.
Protocol: RET Kinase Cell-Based Mechanistic Assay
The potency of the compound of the invention was tested for its ability to inhibit constitutive RET kinase phosphorylation in cell-based assay. […] 1.0E5 TT cells/well were plated in a 96-well cell culture plate and allowed to adhere overnight. […] IC50s were fitted using GraphPad Prism to a sigmoidal dose response.
Where [4] appears, read: human RET kinase cell-based proliferation assay, TT cells, eight days (Table 4).

SMILES strings stand for the structures. Counter-ions that a name gives are not always drawn. Like-named read-outs stand apart in the source and are kept apart here. A value given as a limit tells only on which side of the number the result lay.

Chain of constitutive RET kinase phosphorylation in TT cells (P07949 29-1114 C634W): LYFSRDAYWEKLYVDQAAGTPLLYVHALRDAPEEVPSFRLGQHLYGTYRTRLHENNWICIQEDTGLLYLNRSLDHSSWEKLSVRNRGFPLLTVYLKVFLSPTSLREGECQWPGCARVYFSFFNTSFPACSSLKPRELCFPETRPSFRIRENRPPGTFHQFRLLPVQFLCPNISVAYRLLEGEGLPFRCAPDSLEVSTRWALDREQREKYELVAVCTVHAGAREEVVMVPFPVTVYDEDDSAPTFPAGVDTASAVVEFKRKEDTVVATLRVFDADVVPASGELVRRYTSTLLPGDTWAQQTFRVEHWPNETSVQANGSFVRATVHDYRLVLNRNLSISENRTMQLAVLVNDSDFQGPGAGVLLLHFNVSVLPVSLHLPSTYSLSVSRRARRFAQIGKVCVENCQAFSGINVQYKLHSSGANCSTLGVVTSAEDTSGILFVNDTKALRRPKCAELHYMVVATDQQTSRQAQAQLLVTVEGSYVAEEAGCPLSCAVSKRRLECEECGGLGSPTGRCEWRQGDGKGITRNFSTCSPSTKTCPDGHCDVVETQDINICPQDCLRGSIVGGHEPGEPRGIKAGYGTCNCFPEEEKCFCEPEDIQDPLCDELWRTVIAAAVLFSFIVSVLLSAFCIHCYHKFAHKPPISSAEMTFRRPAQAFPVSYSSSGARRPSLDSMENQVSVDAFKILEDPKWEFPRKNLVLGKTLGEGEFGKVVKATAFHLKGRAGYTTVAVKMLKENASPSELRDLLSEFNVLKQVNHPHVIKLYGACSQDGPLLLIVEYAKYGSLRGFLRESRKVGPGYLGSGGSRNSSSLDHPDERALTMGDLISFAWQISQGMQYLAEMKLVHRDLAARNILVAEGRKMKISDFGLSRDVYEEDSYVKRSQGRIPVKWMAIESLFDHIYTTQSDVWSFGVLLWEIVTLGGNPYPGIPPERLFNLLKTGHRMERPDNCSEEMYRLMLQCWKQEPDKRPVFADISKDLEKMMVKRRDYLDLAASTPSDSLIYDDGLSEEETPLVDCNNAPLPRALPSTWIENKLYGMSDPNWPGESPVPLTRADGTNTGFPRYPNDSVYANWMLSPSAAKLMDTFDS
Chain of Human RET kinase cytoplasmic domain (P07949 658-1114): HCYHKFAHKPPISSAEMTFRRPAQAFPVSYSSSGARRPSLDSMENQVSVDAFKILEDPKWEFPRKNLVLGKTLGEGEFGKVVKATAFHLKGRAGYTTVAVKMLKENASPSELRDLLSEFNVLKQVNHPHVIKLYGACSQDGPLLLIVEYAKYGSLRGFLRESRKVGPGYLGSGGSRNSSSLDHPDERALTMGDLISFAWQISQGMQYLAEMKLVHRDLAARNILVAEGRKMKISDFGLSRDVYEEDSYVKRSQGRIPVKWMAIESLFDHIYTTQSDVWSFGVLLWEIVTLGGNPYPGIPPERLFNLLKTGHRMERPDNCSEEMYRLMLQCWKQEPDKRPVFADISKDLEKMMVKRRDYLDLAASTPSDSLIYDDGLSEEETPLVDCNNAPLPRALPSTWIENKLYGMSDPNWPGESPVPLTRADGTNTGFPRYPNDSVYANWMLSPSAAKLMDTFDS

A word on the IC50: it is the midpoint of a concentration-inhibition curve. For `CCOc1cc(=O)[nH]cc1-c1ccc(CC(=O)Nc2cnc(OCCN(C)C)c(C(F)(F)F)c2)c(F)c1` [Example 10, N-(6-(2-(Dimethylamino)ethoxy)-5-(trifluoromethyl)pyridin-3-yl)-2-(4-(4-ethoxy-6-oxo-1,6-dihydropyridin-3-yl)-2-fluorophenyl)acetamide dihydrochloride], the IC50 in experiment [1] (Homo sapiens, TT) was in the range of 500 to 10000 nM; in experiment [2], 100 to 500 nM; in experiment [3], 500 to 10000 nM.
Consider `CCOc1cc(-c2ccc(CC(=O)Nc3cc(-n4ccc(C)n4)cc(C(F)(F)F)c3)c(F)c2)c[nH]c1=O` [Example 35, 2-(4-(5-ethoxy-6-oxo-1,6-dihydropyridin-3-yl)-2-fluorophenyl)-N-(3-(3-methyl-1H-pyrazol-1-yl)-5-(trifluoromethyl)phenyl)acetamide hydrochloride], for which the half-inhibitory concentration (IC50) in experiment [1] (Homo sapiens, TT) was 100 to 500 nM; in experiment [2], less than 100 nM; in experiment [3], less than 100 nM.
In the case of `CCOc1cc(-c2ccc(CC(=O)Nc3cc(OCCN(C)C)cc(C(F)(F)F)c3)c(F)c2)c[nH]c1=O` [Example 46, N-(3-(2-(dimethylamino)ethoxy)-5-(trifluoromethyl)phenyl)-2-(4-(5-ethoxy-6-oxo-1,6-dihydropyridin-3-yl)-2-fluorophenyl)acetamide], the IC50 in experiment [1] (setting [4]), in experiment [2] and in experiment [3] was less than 100 nM throughout.
As to `CCOc1cc(=O)[nH]cc1-c1ccc(CC(=O)Nc2ccc(CC(C)(C)CO)c(C(F)(F)F)c2)cc1F` [Example 32, 2-(4-(4-Ethoxy-6-oxo-1,6-dihydropyridin-3-yl)-3-fluorophenyl)-N-(4-(3-hydroxy-2,2-dimethylpropyl)-3-(trifluoromethyl)phenyl)acetamide], the IC50 in experiment [1] (setting [4]), in experiment [2] and in experiment [3] was less than 100 nM each time.
For the compound `CCOc1cc(-c2ccc(CC(=O)Nc3cc(OCCN4CCOCC4)cc(C(F)(F)F)c3)c(F)c2)c[nH]c1=O` [Example 39, 2-(4-(5-ethoxy-6-oxo-1,6-dihydropyridin-3-yl)-2-fluorophenyl)-N-(3-(2-morpholinoethoxy)-5-(trifluoromethyl)phenyl)acetamide], the IC50 was 100 to 500 nM in experiment [1] (setting [4]), less than 100 nM in experiment [2] and less than 100 nM in experiment [3].
On to `CCOc1cc(-c2ccc(CC(=O)Nc3cc(C(C)(C)C(F)(F)F)no3)c(F)c2)c[nH]c1=O` [Example 28, 2-(4-(5-Ethoxy-6-oxo-1,6-dihydropyridin-3-yl)-2-fluorophenyl)-N-(3-(1,1,1-trifluoro-2-methylpropan-2-yl)isoxazol-5-yl)acetamide], for which the IC50 in experiment [1] (setting [4]), in experiment [2] and in experiment [3] was less than 100 nM throughout.
On to `CCOc1cc(-c2ccc(CC(=O)Nc3ccc(CC(F)(F)CO)c(C(F)(F)F)c3)c(F)c2)c[nH]c1=O` [Example 43, N-(4-(2,2-difluoro-3-hydroxypropyl)-3-(trifluoromethyl)phenyl)-2-(4-(5-ethoxy-6-oxo-1,6-dihydropyridin-3-yl)-2-fluorophenyl)acetamide], for which the IC50 in experiment [1] (setting [4]), in experiment [2] and in experiment [3] was less than 100 nM throughout.
